Data published in US12545672B2, “Antibiotic compounds, methods of manufacturing the same, pharmaceutical compositions containing the same and uses thereof” (Debiopharm International S.A., priority 2018, dated 2026).
Like-named read-outs stand apart in the source and are kept apart here.

Key:
Neisseria gonorrhoeae = experiment: MIC50 by CLSI agar dilution on a panel of N. gonorrhoeae clinical isolates; format: cell-based
Description: MIC50: MICs were determined in accordance with the appropriate Clinical and Laboratory Standards Institute (CLSI) methodology by the agar dilution susceptbility testing method in GC agar base.

[1] = Mouse cassette PK and oral bioavailability determination; format: in vivo, Female BALB/c mice; details: iv 1 mg/kg, po 2 mg/kg, cassette dosing; for bioavailability: female, BALB/c, mouse, plasma, read-out: Mouse F (%)
Description: Dose volumes were 5 ml/kg and 10 ml/kg for IV and oral administration, respectively. Compounds were co-formulated in a 10% DMSO (v/v) and 40% Captisol (w/v) in saline solution formulation (up to 3 compounds in a cassette). […] Tmax, Cmax, AUC, clearance, volume of distribution and oral bioavailability were estimated from the plasma concentrations using non-compartmental pharmacokinetic models. In particular, oral bioavailability (F %) was defined as F=(Doseiv*AUCpo)/(Dosepo*AUCiv)*100

[2] = molecular target: Neisseria gonorrhoeae FabI (Neisseria gonorrhoeae, UniProt A0ACH0F547); experiment: Neisseria gonorrhoeae FabI inhibition assay (NADH consumption)
Description: Neisseria gonorrhoeae FabI Inhibition Assay:
Inhibition of Neisseria gonorrhoeae FabI enzyme activity was tested by measuring the rate of NADH consumption (Δabsorbance at 340 nm/min) at 30° C. in 96-well plate format using an automated plate reader in the presence or absence of the test compounds. […] This dose-response inhibitory assay was performed using an 11-point, serial dilution series for each test compound. IC50 values for each test compound were assigned from logistical sigmoid curve-fitting of the inhibition dose response curves.

[3] = molecular target: Chlamydia trachomatis FabI (Chlamydia trachomatis serovar D (strain ATCC VR-885 / DSM 19411 / UW-3/Cx), UniProt O84106); experiment: Chlamydia trachomatis FabI inhibition assay (NADH consumption); details: read-out: CT FABI IC50; recombinant C. trachomatis FabI, 30° C., pH 7.0
Description: Example 65 Chlamydia trachomatis FabI Inhibition Assay
Inhibition of Chlamydia trachomatis FabI enzyme activity was tested by measuring the rate of NADH consumption (Δabsorbance at 340 nm/min) at 30° C. in 96-well plate format using an automated plate reader in the presence or absence of the test compounds. […] This dose-response inhibitory assay was performed using an 11-point, serial dilution series for each test compound. IC50 values for each test compound were assigned from logistical sigmoid curve-fitting of the inhibition dose response curves.

[4] = Prediction of hepatic extraction ratio from liver microsome stability; format: in vitro ADME; details: human liver microsomes, Well-Stirred model
Description: In short, the study compounds were incubated with liver microsomes supplemented with cofactors (1 mM NADPH, 1 mM UDPGA+15 mM alamethicin). At selected time points, the assays were quenched using an equal volume of cold acetonitrile and samples were analyzed by UPLC/HR-MS to monitor disappearance rate of the compounds. […] With the use of species-specific physiologically-based scaling factors (PBSF) and the Well-Stirred model of hepatic clearance as modified by Poulin et al, Journal of Pharmaceutical Sciences, vol. […] 11, November 2012, the in vitro CLint was further transformed into in vivo CLint and to hepatic extraction ratio (ER) for both mouse and human.

Caco-2 = Caco-2 permeability assay; format: in vitro ADME; details: 120 min incubation
Description: (§1) Caco-2 assay: Compounds were incubated in a Caco-2 24-transwell system (Solvo Biotechnologies, Hungary) for 120 min, after which samples were taken from the donor and acceptor compartments of the transwell system. The integrity of each cell monolayer was controlled by measuring transepithelial electrical resistance (TEER) before the experiment. Lucifer yellow permeability (B to A) was also tested as a control on the same plate (all wells) after the actual experiment. The samples were analyzed using UPLC/MS/MS. The permeation of the compounds was monitored using relative LC/MS/MS peak areas (initial donor solution sample=100%).

[5] = Caco-2 permeability assay; format: in vitro ADME; details: human, Caco-2; A2B, 120 min incubation
Description: as §1

[6] = Neisseria gonorrhoeae, agar dilution, GC agar base, minimum of 15 clinical isolates, read-out: MIC50

Sequence of Neisseria gonorrhoeae FabI (A0ACH0F547 1-261): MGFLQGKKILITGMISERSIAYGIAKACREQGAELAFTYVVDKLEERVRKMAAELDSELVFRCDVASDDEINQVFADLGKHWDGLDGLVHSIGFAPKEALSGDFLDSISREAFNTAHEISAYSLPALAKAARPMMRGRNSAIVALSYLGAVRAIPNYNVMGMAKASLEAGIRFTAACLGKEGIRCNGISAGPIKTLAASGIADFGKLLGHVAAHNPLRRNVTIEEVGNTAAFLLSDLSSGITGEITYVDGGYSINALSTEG
Sequence of Chlamydia trachomatis FabI (O84106 1-298): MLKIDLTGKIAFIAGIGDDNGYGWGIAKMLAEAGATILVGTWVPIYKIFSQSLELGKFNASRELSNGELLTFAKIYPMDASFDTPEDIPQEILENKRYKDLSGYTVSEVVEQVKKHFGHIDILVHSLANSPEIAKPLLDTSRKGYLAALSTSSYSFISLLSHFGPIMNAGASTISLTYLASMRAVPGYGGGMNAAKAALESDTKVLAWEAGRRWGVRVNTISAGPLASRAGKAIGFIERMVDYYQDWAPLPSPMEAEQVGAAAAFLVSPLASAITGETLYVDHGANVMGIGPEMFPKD

For `Cc1c(CN(C)C(=O)/C=C/c2cnc3c(c2)NC[C@H](O)C(=O)N3)oc2cccc(N)c12` [Compound 275, (E)-N-[(4-Amino-3-methyl-benzofuran-2-yl)methyl]-3-[(3S)-3-hydroxy-4-oxo-1,2,3,5-tetrahydropyrido[2,3-b][1,4]diazepin-8-yl]-N-methyl-prop-2-enamide], the MIC50 (Neisseria gonorrhoeae; [6]) was < 1 µg/mL, the bioavailability [1] was 51% and the IC50 [2] was < 10 nM. The IC50 [3] was < 5000 nM.
For `COc1cccc(Oc2ccc(C3=C[C@H]4CN(C(=O)/C=C/c5cnc6c(c5)NCCC(=O)N6)C[C@H]4C3)cc2)c1` [Compound 129, 8-((E)-3-((3rS,6rR)-5-(4-(3-methoxyphenoxy)phenyl)-3,3r,4,6r-tetrahydrocyclopenta[c]pyrrol-2(1H)-yl)-3-oxoprop-1-en-1-yl)-1,2,3,5-tetrahydro-4H-pyrido[2,3-b][1,4]diazepin-4-one], the MIC50 (Neisseria gonorrhoeae; [6]) was < 1 µg/mL, the “Predict Human hep ER” value [4] was 0.02 and the bioavailability [1] was 26%. The IC50 [2] was < 10 nM.
With `Cc1oc2c(N)cccc2c1CN(C)C(=O)/C=C/c1cnc2c(c1)N[C@H](C)[C@H](O)C(=O)N2` [Compound 290, (E)-N-((7-amino-2-methylbenzofuran-3-yl)methyl)-3-((2R,3S)-3-hydroxy-2-methyl-4-oxo-2,3,4,5-tetrahydro-1H-pyrido[2,3-b][1,4]diazepin-8-yl)-N-methylacrylamide] the MIC50 (Neisseria gonorrhoeae; [6]) was < 1 µg/mL, the “Predict Human hep ER” value [4] was 0.1 and the IC50 [2] was < 10 nM.
For `Cc1oc2c(Oc3ccc4c(c3)OCO4)cccc2c1CN(C)C(=O)/C=C/c1cnc2c(c1)NC[C@@](C)(O)C(=O)N2` [Compound 176, (R,E)-N-((7-(benzo[d][1,3]dioxol-5-yloxy)-2-methylbenzofuran-3-yl)methyl)-3-(3-hydroxy-3-methyl-4-oxo-2,3,4,5-tetrahydro-1H-pyrido[2,3-b][1,4]diazepin-8-yl)-N-methylacrylamide], the MIC50 (Neisseria gonorrhoeae; [6]) was < 1 µg/mL, the “Predict Human hep ER” value [4] was 0.07 and the bioavailability [1] was 44%. The IC50 [2] was < 10 nM.
In the case of `O=C1CCNc2cc(/C=C/C(=O)N3C[C@H]4CC(c5ccc(Oc6ccncc6)cc5)=C[C@H]4C3)cnc2N1` (racemic) [Compound 90, 8-((E)-3-Oxo-3-((3rS,6rR)-5-(4-(pyridin-4-yloxy)phenyl)-3,3r,4,6r-tetrahydrocyclopenta[c]pyrrol-2(1H)-yl)prop-1-en-1-yl)-1,2,3,5-tetrahydro-4H-pyrido[2,3-b][1,4]diazepin-4-one], the MIC50 (Neisseria gonorrhoeae; agar dilution, GC agar base, minimum of 15 clinical isolates) is reported as <1 µg/mL, the “Caco-2 Papp A2B” value (Caco-2) is reported as 10.7 10−6 cm/s and the “Predict Human hep ER” value [4] is reported as 0.03. For the same compound, the “Mouse F (%)” value [1] was 7% and the IC50 ([2]; read-out: ngFabI IC50, recombinant N. gonorrhoeae FabI, 30° C., pH 7.2) was < 10 nM.
With `COc1cccc(Oc2cccc3c(CN(C)C(=O)/C=C/c4cnc5c(c4)CCCC(=O)N5)c(C)sc23)c1` [Compound 194, (E)-N-((7-(3-methoxyphenoxy)-2-methylbenzo[b]thiophen-3-yl)methyl)-N-methyl-3-(8-oxo-6,7,8,9-tetrahydro-5H-pyrido[2,3-b]azepin-3-yl)acrylamide] the MIC50 (Neisseria gonorrhoeae; [6]) was < 1 µg/mL, the bioavailability [1] was 12% and the IC50 [2] was < 10 nM.
In the case of `O=C1CCNc2cc(/C=C/C(=O)N3C[C@H]4CC(c5ccc(Oc6cncs6)cc5)=C[C@H]4C3)cnc2N1` [Compound 96, 8-((E)-3-Oxo-3-((3aS,6aR)-5-(4-(thiazol-5-yloxy)phenyl)-3,3a,4,6a-tetrahydrocyclopenta[c]pyrrol-2(1H)-yl)prop-1-en-1-yl)-1,2,3,5-tetrahydro-4H-pyrido[2,3-b][1,4]diazepin-4-one], the MIC50 (Neisseria gonorrhoeae; [6]) is reported as < 1 µg/mL, the “Predict Human hep ER” value [4] is reported as 0.2 and the bioavailability [1] is reported as 16%. The IC50 [2] was < 10 nM.
With `Cc1c(CN(C)C(=O)/C=C/c2cnc3c(c2)NCC2(CC(O)C2)C(=O)N3)oc2ccccc12` (stereo not shown) [Compound 115, (E)-3-(3-Hydroxy-4′-oxo-1′,2′,4′,5′-tetrahydrospiro[cyclobutane-1,3′-pyrido[2,3-b][1,4]diazepin]-8′-yl)-N-methyl-N-((3-methylbenzofuran-2-yl)methyl)acrylamide] the MIC50 (Neisseria gonorrhoeae; [6]) was < 1 µg/mL, the Papp A→B at 120 min [5] was 3.4 ×10⁻⁶ cm/s and the “Predict Human hep ER” value [4] was 0.28. For the same compound, the bioavailability [1] was 18% and the IC50 [2] was < 10 nM.
With `Cc1oc2c(N)cccc2c1CN(C)C(=O)/C=C/c1cnc2c(c1)NC(C)(C)C(=O)N2` [Compound 287, (E)-N-((7-amino-2-methylbenzofuran-3-yl)methyl)-3-(2,2-dimethyl-3-oxo-1,2,3,4-tetrahydropyrido[2,3-b]pyrazin-7-yl)-N-methylacrylamide] the MIC50 (Neisseria gonorrhoeae; [6]) was < 1 µg/mL, the “Predict Human hep ER” value [4] was 0.34 and the IC50 [2] was < 10 nM.
With `COc1cccc(Oc2cccc3c(CN(C)C(=O)/C=C/c4cnc5c(c4)NCCC(=O)N5)c(C)oc23)c1` [Compound 155, (E)-N-((7-(3-methoxyphenoxy)-2-methylbenzofuran-3-yl)methyl)-N-methyl-3-(4-oxo-2,3,4,5-tetrahydro-1H-pyrido[2,3-b][1,4]diazepin-8-yl)acrylamide] the MIC50 (Neisseria gonorrhoeae; [6]) was < 1 µg/mL, the “Predict Human hep ER” value [4] was 0.32 and the bioavailability [1] was 28%. For the same compound, the IC50 [2] was < 10 nM and the IC50 [3] was < 1000 nM.
In the case of `Cc1oc2c(Oc3ccc(C#N)cc3)cccc2c1CN(C)C(=O)/C=C/c1cnc2c(c1)NCCC(=O)N2` [Compound 80, (E)-N-((7-(4-cyanophenoxy)-2-methylbenzofuran-3-yl)methyl)-N-methyl-3-(4-oxo-2,3,4,5-tetrahydro-1H-pyrido[2,3-b][1,4]diazepin-8-yl)acrylamide], the MIC50 (Neisseria gonorrhoeae; Neisseria gonorrhoeae) is reported as < 1 µg/mL, the “Predict Human hep ER” value [4] is reported as 0.25 and the bioavailability [1] is reported as 35%. The IC50 [2] was < 10 nM.
In the case of `Cc1oc2c(N)cccc2c1CN(C)C(=O)/C=C/c1cnc2c(c1)NC[C@H](O)C(=O)N2` [Compound 276, (S,E)-N-((7-amino-2-methylbenzofuran-3-yl)methyl)-3-(3-hydroxy-4-oxo-2,3,4,5-tetrahydro-1H-pyrido[2,3-b][1,4]diazepin-8-yl)-N-methylacrylamide], the MIC50 (Neisseria gonorrhoeae; [6]) is reported as < 1 µg/mL, the bioavailability [1] is reported as 43% and the IC50 [2] is reported as < 10 nM.
For `COc1cccc(Oc2cccc3c(CN(C)C(=O)/C=C/c4cnc5c(c4)NC[C@@](C)(O)C(=O)N5)c(C)oc23)c1` [Compound 183, (R,E)-3-(3-hydroxy-3-methyl-4-oxo-2,3,4,5-tetrahydro-1H-pyrido[2,3-b][1,4]diazepin-8-yl)-N-((7-(3-methoxyphenoxy)-2-methylbenzofuran-3-yl)methyl)-N-methylacrylamide], the MIC50 (Neisseria gonorrhoeae; [6]) was < 1 µg/mL, the bioavailability [1] was 16% and the IC50 [2] was < 10 nM.
With `Cc1oc2c(Oc3ccc4c(c3)N(C)CC4)cccc2c1CN(C)C(=O)/C=C/c1cnc2c(c1)NCCC(=O)N2` [Compound 134, (E)-N-Methyl-N-((2-methyl-7-((1-methylindolin-6-yl)oxy)benzofuran-3-yl)methyl)-3-(4-oxo-2,3,4,5-tetrahydro-1H-pyrido[2,3-b][1,4]diazepin-8-yl)acrylamide] the MIC50 (Neisseria gonorrhoeae; [6]) was < 1 µg/mL, the “Predict Human hep ER” value [4] was 0.43 and the bioavailability [1] was 9%. The IC50 [2] was < 10 nM.
For `Cc1oc2c(Oc3ccc4c(c3)OCO4)cccc2c1CN(C)C(=O)/C=C/c1cnc2c(c1)NCCC(=O)N2` [Compound 119, (E)-N-((7-(Benzo[d][1,3]dioxol-5-yloxy)-2-methylbenzofuran-3-yl)methyl)-N-methyl-3-(4-oxo-2,3,4,5-tetrahydro-1H-pyrido[2,3-b][1,4]diazepin-8-yl)acrylamide], the MIC50 (Neisseria gonorrhoeae; [6]) was < 1 µg/mL, the “Predict Human hep ER” value [4] was 0.08 and the IC50 [2] was < 10 nM.
For `COc1cc(Oc2ccc(C3=C[C@H]4CN(C(=O)/C=C/c5cnc6c(c5)NCCC(=O)N6)C[C@H]4C3)cc2)ccc1C#N` [Compound 140, 2-methoxy-4-(4-((3rS,6rR)-2-((E)-3-(4-oxo-2,3,4,5-tetrahydro-1H-pyrido[2,3-b][1,4]diazepin-8-yl)acryloyl)-1,2,3,3r,4,6r-hexahydrocyclopenta[c]pyrrol-5-yl)phenoxy)benzonitrile], the MIC50 (Neisseria gonorrhoeae; [6]) was < 1 µg/mL, the “Predict Human hep ER” value [4] was 0.13 and the bioavailability [1] was 13%. The IC50 [2] was < 10 nM.
